In patent publication US10730864B2, “RAD51 inhibitors and uses thereof” (THE REGENTS OF THE UNIVERSITY OF CALIFORNIA, priority 2015, dated 2020):
“Also recorded” adds a separate entry of the source. Read-outs that look alike come from different tables or passages of the source.

Legend:
[1] = tested on: triple-negative human breast cancer cell line MDA-MB-468; experiment: XTT cell killing / growth inhibition assay, MDA-MB-468; assay type: cell-based; settings: for IC50: Homo sapiens
Protocol: (§1) Standard XTT assays with a four-day drug treatment procedure were performed to measure the dose dependent cytotoxicity of IBR analogs in cultured cells. In brief, cells were plated on 96-well dishes one day before the drug treatment, followed by drug treatment on day 2 and XTT assay on day 6 after drug addition by using a commercial cell proliferation kit (Roche Scientific) following the instructions.
(§2) Triplicate sets were measured and compiled for final data presentation.
To test the possibility of inhibiting triple-negative breast cancer, the newly synthesized IBR2 analogues IBR101-124 were screened of their growth inhibition abilities using an XTT assay.

[2] = tested on: human Chronic Myelogenous Leukemia cell line K562; experiment: XTT growth inhibition assay, K562; assay type: cell-based
Protocol: as §1, §2
(§3) The growth inhibition of a panel of cancer cell lines was tested against IBR120 using an XTT assay. These cell lines included human Chronic Myelogenous Leukemia cell line K562, human breast cancer cell lines MCF7, MDA-MB-231, MDA-MB-361, MDA-MB-435, MDA-MB-468, Hs578-T, and T47D, human Osteosarcoma cell line U2OS, human Glioblastoma cell line T98G, human Cervical Cancer cell line HeLa, as well as human mammary gland normal epithelial cell line MCF10A as normal control.

[3] = tested on: human breast cancer cell line MCF7; experiment: XTT growth inhibition assay, MCF7; assay type: cell-based; settings: MCF7, Mammary Gland Adenocarcinoma
Protocol: as §1, §2, §3

[4] = tested on: human breast cancer cell line MDA-MB-231; experiment: XTT growth inhibition assay, MDA-MB-231; assay type: cell-based; settings: MDA-MB-231, Mammary Gland Adenocarcinoma
Protocol: as §1, §2, §3

[5] = tested on: human breast cancer cell line MDA-MB-361; experiment: XTT growth inhibition assay, MDA-MB-361; assay type: cell-based; settings: MDA-MB-361, Mammary Gland Adenocarcinoma
Protocol: as §1, §2, §3

[6] = tested on: human breast cancer cell line MDA-MB-435; experiment: XTT growth inhibition assay, MDA-MB-435; assay type: cell-based; settings: MDA-MB-435, Melanoma/Mammary Gland Ductal Carcinoma
Protocol: as §1, §2, §3

[7] = tested on: human breast cancer cell line Hs578-T; experiment: XTT growth inhibition assay, Hs578-T; assay type: cell-based; settings: Hs-578T, Mammary Gland Carcinoma
Protocol: as §1, §2, §3

[8] = tested on: human breast cancer cell line T47D; experiment: XTT growth inhibition assay, T47D; assay type: cell-based; settings: Mammary Gland Ductal Carcinoma
Protocol: as §1, §2, §3

[9] = tested on: human Osteosarcoma cell line U2OS; experiment: XTT growth inhibition assay, U2OS; assay type: cell-based
Protocol: as §1, §2, §3

[10] = tested on: human Glioblastoma cell line T98G; experiment: XTT growth inhibition assay, T98G; assay type: cell-based; settings: Glioblastoma Multiforme
Protocol: as §1, §2, §3

[11] = tested on: human Cervical Cancer cell line HeLa; experiment: XTT growth inhibition assay, HeLa; assay type: cell-based; settings: Cervix Adenocarcinoma
Protocol: as §1, §2, §3

[12] = tested on: human mammary gland normal epithelial cell line MCF10A; experiment: XTT growth inhibition assay, MCF10A normal control; assay type: cell-based; settings: MCF-10A
Protocol: as §1, §2, §3

[13] = tested on: panel of cancer cell lines; experiment: XTT growth inhibition assay, panel of cancer cell lines (summary); assay type: cell-based, human
Protocol: as §1, §2, §3

RAD51 = molecular target: T1, RAD51 (Homo sapiens, UniProt Q06609); experiment: Multimer formation assay (gel filtration); assay type: biochemical; settings: RAD51:IBR120 1:10 molar ratio, gel filtration profile
T1 sequence (Q06609 1-339): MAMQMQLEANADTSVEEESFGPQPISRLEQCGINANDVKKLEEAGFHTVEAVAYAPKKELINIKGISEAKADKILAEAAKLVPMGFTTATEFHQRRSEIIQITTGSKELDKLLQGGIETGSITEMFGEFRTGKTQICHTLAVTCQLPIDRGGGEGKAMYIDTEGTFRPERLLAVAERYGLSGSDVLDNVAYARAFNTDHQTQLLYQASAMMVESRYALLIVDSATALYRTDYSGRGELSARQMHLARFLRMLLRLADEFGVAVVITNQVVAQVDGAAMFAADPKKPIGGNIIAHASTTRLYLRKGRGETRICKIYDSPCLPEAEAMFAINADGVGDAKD
Protocol: A mixture of RAD51 (3.2 μg) and IBR120 (1:10 molar ratio) was incubated for 15 min at 37° C., supplemented with buffer (50 mM triethanolamine-HCl [pH7.5], 0.5 mM Mg(OAc)2, 1 mM DTT, 2 mM ATP and 100 μg/ml BSA, total volume 20 μl) and incubated for 15 min. The mixture was loaded onto a 2.4 ml Superdex 200 PC 3.2/30 column (Pharmacia) equilibrated with the same buffer as previously described (Zhu et al., 2013, EMBO Mol. Med. 5:1-13; Pierce et al., 1999, Genes Dev. 13:2633-2638). Fractions (50 μl) were collected and 0.5 μl of each fraction was blotted onto PVDF membrane. RAD51 was detected using anti-RAD51 antibody (mAb 14B4, GeneTex)
On the RAD51 core domain, a hydrophobic pocket formed between β-strand B3 and α-helix A4 of RAD51 is critical for RAD51 multimerization (Pellegrini et al., 2002, Nature 420:287-293). It was hypothesized that IBR compounds should be able to inhibit RAD51 multimerization. In order to test this hypothesis, the gel filtration profile of RAD51 multimerization in the presence of IBR120 or vehicle (DMSO) alone were compared.

[14] = tested on: HR repair in HeLa-DR-GFP cells; experiment: HR assay (I-SceI inducible gene conversion, DR-GFP); assay type: cell-based, human; settings: 10 or 20 μM, 24 hours, GFP positive cells by flow cytometry
Protocol: HR frequency was measured by two-colour fluorescence flow cytometric analysis using HeLa-DR-GFP cells. Fifty thousand events were analyzed for each experiment. Cells were treated with DMSO (mock), 10 or 20 μM of IBR2 or IBR120 as indicated for 24 hours after transient transfection with I-SceI expression vector pCABSce for 24 hours. HR frequencies were indicated by GFP positive cell percentages. […] DMSO. […] DMSO. […] DMSO. […] DMSO. […] GFP positive cell percentages by indicated treatments obtained from three independent experiments are summarized as means±SD.
Using previously described methods (Zhu et al., 2013, EMBO Mol. Med. 5:1-13; Pierce et al., 1999, Genes Dev. 13:2633-2638), HeLa cells stably expressing DR-GFP were transfected with the I-Sce expression vector pCBASce and treated with compounds or DMSO. Cells were then trypsinized and subjected to flow cytometry.
Inhibition of RAD51 function will lead to failure in HR repair. […] Upon I-SceI expression by transient transfection for 24 hours to induce DSBs, cells were treated with DMSO, 10 or 20 μM of IBR120 or IBR2 for another 24 hours and the GFP positive population resulting from successful recombination was measured by flow cytometry.

## O=S(=O)(Cc1ccccc1)N1Cc2ccccc2[C@@H]1c1c[nH]c2ccccc12 [IBR120, (R)-3-(2-(benzylsulfonyl)isoindolin-1-yl)-1H-indole]
[1]; 96 h, MDA-MB-468, XTT assay, four-day drug treatment, read-out: IC50
  IC50: 3.1 µM
[1]; MDA-MB-468, growth inhibition, raw dataset for SAR analysis, read-out: pIC50 (converted)
  IC50: 3.24 µM
[1]; MDA-MB-468, Mammary Gland Adenocarcinoma (Table 3, with spread), read-out: IC50
  IC50: 3.1 ± 0.4 µM
[1]; MDA-MB-468
  IC50 compared with that of the parental compound IBR2 (in words): significantly lower
[2]
  IC50: 3.6 ± 0.7 µM
[3]
  IC50: 3.1 ± 0.2 µM
[4]
  IC50: 3.5 ± 0.4 µM
[5]
  IC50: 4.5 ± 0.7 µM
[6]
  IC50: 4 ± 0.7 µM
[7]
  IC50: 4.9 ± 1 µM
[8]
  IC50: 6.3 ± 1.5 µM
[9]
  IC50: 4.7 ± 0.5 µM
[10]
  IC50: 9.5 ± 0.9 µM
[11]
  IC50: 3.6 ± 0.6 µM
[12]
  IC50: > 30 µM
[13]; Homo sapiens, XTT assay, read-out: IC50 values in most tested cancer cell lines
  IC50: 3 to 5 µM
[13]; MCF10A versus cancer cell lines
  difference between the IC50 values in normal and cancer cells: approximately 10 fold
RAD51
  RAD51 multimerization (in words): capable of disrupting RAD51 multimerization; also recorded: can inhibit RAD51 multimerization; also recorded: can disrupt RAD51 multimer formation in vitro; also recorded: inhibits RAD51 multimerization
[14]
  HR frequency / HR repair (in words): impairing homologous recombination repair; also recorded: significantly reduced; also recorded: greater depression of HR repair activity; also recorded: inhibit HR repair in cells; also recorded: dose dependently inhibits HR repair
